Tests used:
TGM1 transcripts = assay: Expression of TGM1 transcripts in keratinocytes (RT-qPCR); assay type: cell-based; conditions: human epidermal keratinocytes
Method: (§1) The influence of compound 5, in particular obtained according to the preparation process described in example 1 above, on the epidermal renewal and the barrier effect of the skin was evaluated in vitro by measuring the expression of the TGM1 and TGM3 transcripts in keratinocytes.
(§2) Human epidermal keratinocytes were incubated for 24 hours in the presence or absence (control) of the compound to be tested. At the end of the incubation, the total RNAs were extracted and then quantified. The expression of the TGM1 and TGM3 transcripts was then measured by means of a 2-step RT-qPCR method by means of a LightCycler® 480 system and according to the SYBR® Green (Qiagen) incorporation technique. The expression of these transcripts was standardized relative to the expression of 2 housekeeping genes, RPL13A and GAPDH. The experiment was reproduced 3 times (N=3).
(§3) The results are expressed as fold change (fc) relative to the control.

TGM3 transcripts = assay: Expression of TGM3 transcripts in keratinocytes (RT-qPCR); assay type: cell-based; conditions: human epidermal keratinocytes
Method: as §1, §2, §3

[1] = 24 hours incubation, 100 μm, standardized to RPL13A and GAPDH, N=3

CCCCCCCCC1C(O)CCC1CC(=O)O (stereo not shown) [Compound 5]
expression of the TGM1 transcripts (class in words) (TGM1 transcripts; 24 hours): moderately stimulated | TGM1 transcript expression, fold change (fc) relative to the control (TGM1 transcripts; [1]): 1.9 fc | expression of the TGM3 transcripts (class in words) (TGM3 transcripts; 24 hours): moderately stimulated | TGM3 transcript expression, fold change (fc) relative to the control (TGM3 transcripts; [1]): 1.8 fc

— US10654788B2, “Method for synthesizing novel compounds derived from 3-hydroxy-cyclopentyl acetic acid” (L'OREAL, priority 2015, dated 2020)
